Here are results for nine compounds from patent EP0252299A2, “Use of 12-amino-pyridazino[4',5':3,4]pyrrolo[2,1-a]isoquinolines in the preparation of cardioprotective and neuroprotective agents” (BOEHRINGER INGELHEIM KG, priority 1986, dated 1988).

The nature of assay [1]: Scopolamine-induced impairment of short-term memory (scopolamine dementia). In kind it is in vivo. Particulars: Scopolamin 0,6 mg/kg i.p. The source says:
In Vesuchen mit Einschränkung des Kurzzeitgedächtnisses bzw.

A further assay deals with Tieren. The assay can be described thus: Hypoxia tolerance test: survival of animals in a closed chamber. It counts as in vivo. Particulars: gas mixture 96,5 % nitrogen and 3,5 % oxygen; doses up to 30 mg/kg.
For assay [2], the system named is myocardiale Radio-Calciumaufnahme. The assay can be described thus: Cardioprotective effect: inhibition of isoprenaline-induced myocardial radio-calcium uptake in conscious rats (method of Arndts). It counts as in vivo, Ratten. Particulars: s.c. or p.o., dose that inhibits by 50 % the myocardial radio-calcium uptake caused by 30 mg/kg s.c. Isoprenalin. The source says: Die cardioprotektive Wirkung wird auf folgende Weise bestimmt: Bekanntlich ist der mycardiale Ca⁺²-Gehalt ein Maß für die hypoxische bzw. die durch toxische Catecholamindosen hervorgerufene Herzschädigung (Higgins et al., Mol. Cell. Cardiol. 10: 427 - 438, 1984; Nakanishi et al., Am. J. Physiol. 242: 437 - 449, 1982; Fleckenstein, A., Vorträge der Erlanger Physiol. Tagung 1970, Ed. Keidel, Springer Verlag Berlin, Heidelberg, New York, 1971). Umgekehrt ist die Inhibition der hypoxischen oder Isoprenalin-bedingten myocardialen Calciumaufnahme ein Maß für die cardioprotektive Effektivität von Calciumantagonisten (Fleckenstein s.o.), von Calmodulininhibitoren (Higgins) und anderen Pharmaka, z.B. Betaadrenolytika (Arndts, Arzneimittelforschung 25: 1279 -1284, 1975).
Die cardioprotektive Wirkung wurde an wachen Ratten nach subcutaner oder peroraler Wirkstoffgabe anhand der von Arndts (s.o.) beschriebenen Methode festgestellt, und die Wirkungsstärke der Testsubstanzen als H₅₀-Wert angegeben; dieser Wert entspricht der Dosis, die die durch eine Gabe von 30 (mg/kg; s.c.) Isoprenalin bedingte, myocardiale Radio-Calciumaufnahme zu 50 % hemmt. Hier erwiesen sich die untersuchten neuen Verbindungen als ebenso wirksam wie Nifedipin.

A further assay deals with Kaninchen-Aortenstreifen. The assay can be described thus: Calcium ion kinetics (45Ca2+ efflux) in rabbit aortic strips. Particulars: for Potenzierung des stimulierten Ca²⁺-Efflux: stimulation with 80 mM K⁺. The source says: Bestimmung der Calcium-Ionenkinetik an Kaninchen-Aortenstreifen
Methode nach C. van Breemen, P. Aaronson, R. Loutzenheiser und K. Meisheri CHEST 78: 157s - 165s (1980) und R. Casteels & G. Droogman J. Physiol 317: 263 - 279 (1981)
Methode: Mit ⁴⁵Ca²⁺ geladene Aortenstreifen werden sequentiell äquilibriert in physiologischer Lösung. Dabei tauscht das intrazelluläre Ca²⁺ mit dem extrazellulären Ca²⁺ aus, das heißt im extrazellulären Bad ist das radioaktive ⁴⁵Ca²⁺ meßbar. Auf eine Stimulation mit 80 mM K⁺ oder 10⁻⁵ Mol/l Noradrenalin (NA) hin wird der Austausch beschleunigt. Dabei ist die im Bad ansteigende Radioaktivität ein Maß für den Ca²⁺-Efflux. So wird das Ausmaß der durch die Stimulation freigesetzten Ca²⁺ als Effluxrate bestimmt.

A short description of assay [3]: Microiontophoresis (standard method). The source says:
Die Mikrointophorese wurde gemäß Standardmethode durchgeführt.

The test system of another assay is Isoliertes Rattenherz. Nature of the assay: Isolated Langendorff rat heart, low-flow oxygen deficiency and reperfusion: time to onset of regular contractions. Also noted: species or system Ratten. Particulars: concentration giving a significant reduction of the time to onset of regular contractions; infusion during O2 deficiency. The method, then: Die Untersuchungen am isolierten Langendorff-Herzen wurden nach O. Langendorff, Pflügers Arch. 61, 291 (1895) mit kleinen Abwandlungen ausgeführt:
Isoliertes Rattenherz, retrograde Perfusion über die Aorta. Elektrische Stimulation (300 Impulse/min. Impulsdauer Imsec.). Messung des linksventrikulär entwickelten Druckes mit flüssigkeitsgefülltem Latex-Ballon. Nach 20 min Aequilibrierung Auslösen eines Sauerstoff-Mangelzustandes mit 100-fach vermindertem Fluß durch Drosselung des Perfusionsflusses für 60 min, Rückkehr zu normalem Fluß bewirkt starken Anstieg der Grundspannung, unter Kontrollbedingungen setzt die Herztätigkeit nach 6 - 7 min unregelmäßig wieder ein, nach 15 -18 min rascher Übergang zu regelmäßigen Kontraktionen. Cardioprotektiv wirksame Verbindungen verkürzen die Zeit bis zum Einsetzen regelmäßiger Kontraktionen. Infusion der Testsubstanz (gelöst in unbegastem Perfusionsmedium) während des 0₂-Mangelzustandes herznah in das Perfusionssystem.
Die getesteten Verbindungen ergaben bei Anwendung in der unten angegebenen Konzentration eine signifikante Reduktion der Zeit bis zum Einsetzen regelmäßiger Kontraktionen.

For “3,4-Dihydro-6,7-dimethoxy-12-benzylamino-pyridazino[4ʹ,5ʹ : 3,4] pyrrolo[2,1-a]isochinolin [Verbindung H]”, the Scopolamin-Demenz entry in assay [1] (doses up to 30 mg/kg) is “wirksam (wirksam: Im Dosenbereich bis einschließlich 30 mg/kg zeigen in der mit Substanz behandelten Tiergruppe signifikant mehr Tiere den gewünschten Effekt als in der Kontrollgruppe.)”.

Consider `COC(=O)C1=C(C)NC(C)=C(C(=O)OC)C1c1ccccc1[N+](=O)[O-]` [Nifedipin], for which the Scopolamin-Demenz entry in assay [1] (dose 1 mg/kg) was “wirksam (wirksam: Im Dosenbereich bis einschließlich 30 mg/kg zeigen in der mit Substanz behandelten Tiergruppe signifikant mehr Tiere den gewünschten Effekt als in der Kontrollgruppe.)”; in assay [1] (dose 3-30), “unwirksam”. For the same compound, the Hypoxie result with Tieren is recorded as “unwirksam”.

For the compound “3,4-Dihydro-6,7-dimethoxy-12-(3-dimethylaminopropyl)-aminopyridazino [4ʹ,5ʹ : 3,4]pyrrolo[2,1-a]isochinolin”, the H50-Wert in assay [2] is recorded as 0,46. Also, the “Potenzierung des stimulierten Ca²⁺-Efflux” value in the assay on Kaninchen-Aortenstreifen is 11%. The “Hemmung des stimulierten Ca²⁺-Efflux” value in the assay on Kaninchen-Aortenstreifen (stimulation with 10⁻⁵ Mol/l Noradrenalin (NA)) is 19%. The Mikroiontophorese result in assay [3] is “wirksam (wirksam: Im Dosenbereich bis einschließlich 30 mg/kg zeigen in der mit Substanz behandelten Tiergruppe signifikant mehr Tiere den gewünschten Effekt als in der Kontrollgruppe.)”. Moreover, the Hypoxie result with Tieren is given as “wirksam (wirksam: Im Dosenbereich bis einschließlich 30 mg/kg zeigen in der mit Substanz behandelten Tiergruppe signifikant mehr Tiere den gewünschten Effekt als in der Kontrollgruppe.)”. In addition, the Konzentration in the assay with Isoliertes Rattenherz is recorded as 13,3 µg/ml.

Regarding “12-Allylamino-3,4-dihydro-6,7-dimethoxy-pyridazino-[4ʹ,5ʹ : 3,4] pyrrolo[2,1-a]isochinolin”, in assay [2], the H50-Wert is 2,42.

For the compound `COc1ccc(CCN(C)CCCC(C#N)(c2ccc(OC)c(OC)c2)C(C)C)cc1OC` (stereo not drawn) [Verapamil], the Scopolamin-Demenz result in assay [1] (doses up to 30 mg/kg) was “unwirksam”.

`COc1ccc([C@@H]2Sc3ccccc3N(CCN(C)C)C(=O)[C@@H]2OC(C)=O)cc1` [Diltiazem, reference compound]: in assay [1] (doses up to 30 mg/kg), the Scopolamin-Demenz result was “unwirksam”. Also, the Hypoxie result in the assay with Tieren is given as “unwirksam”.

In the case of “3,4-Dihydro-6,7-dimethoxy-12-(2-methoxyethyl)-amino-pyridazino [4ʹ,5ʹ : 3,4] pyrrolo [2,1-a] isochinolin”, in assay [2], the H50-Wert is on record as 1,92.

As to “3,4-Dihydro-6,7-dimethoxy-12-ethylamino-pyridazino-[4ʹ,5ʹ : 3,4] pyrrolo [2,1-a] isochinolin [B]”, the “Potenzierung des stimulierten Ca²⁺-Efflux” value in the assay with Kaninchen-Aortenstreifen turned out to be 27%. Also, the Hypoxie result in the assay on Tieren was “wirksam (wirksam: Im Dosenbereich bis einschließlich 30 mg/kg zeigen in der mit Substanz behandelten Tiergruppe signifikant mehr Tiere den gewünschten Effekt als in der Kontrollgruppe.)”.

“3,4-Dihydro-6,7-dimethoxy-12-isopropylamino-pyridazino-[4ʹ,5ʹ : 3,4] pyrrolo [2,1-a] isochinolin”: the Hypoxie result in the assay on Tieren is “wirksam (wirksam: Im Dosenbereich bis einschließlich 30 mg/kg zeigen in der mit Substanz behandelten Tiergruppe signifikant mehr Tiere den gewünschten Effekt als in der Kontrollgruppe.)”.
